Experimental data as given in patent US7250410B2, “Cyclic nucleotide phosphodiesterase inhibitors, preparation and uses thereof” (Via Pharmaceuticals, Inc., priority 2001, dated 2007).
“And” between values parts separate entries of the source, which are not always exact repeats. Equal entries are not always repeated.

molecular target: PDE4; test: Inhibition of PDE4, radioenzymatic phosphodiesterase assay; format: biochemical, bovine; settings: Table 1, formula (III); 1 μM cyclic AMP
Method: A 3 g segment of bovine aortic media cut into pieces with scissors was homogenized with an ultra-turrax then a potter glass/glass homogenizer in 7 volumes by weight of buffer A containing a protease inhibitor cocktail (20 mM Tris-HCl, 0.25 M saccharose, 2 mM magnesium acetate, 1 mM dithiothreitol, 5 mM EGTA, 2000 U/ml aprotinin, 10 mg/l leupeptin and 10 mg/l soya trypsic inhibitor). The homogenizate was centrifuged at 105,000 g for 1 hour. […] The column was washed until there was no detectable absorption at 280 nm, then eluted with a linear gradient of NaCl (0–0.5 M) in buffer B. 3-ml fractions were collected and enzyme activity was determined under the conditions described hereinafter to localize the different enzymes PDE1, PDE3, PDE4 and PDE5, which were aliquoted and frozen at −80° C.
The nucleoside formed was separated from the nucleotides by anion exchange chromatography. Nucleoside radioactivity was determined by liquid scintillation counting.

Row | SMILES | IC50 [µM]
1 | CCCCCC#Cc1ccc(C2=NN(C)C(=O)Cc3cc(OC)c(OC)cc32)cc1 [IIIax, 1-[4-(heptyn-1-yl)phenyl]-7,8-dimethoxy-3-methyl-3,5-dihydro-4H-2,3-benzodiazepin-4-one] | 7.8
2 | COc1cc2c(cc1OC)C(c1ccc(-c3cc(C(F)(F)F)cc(C(F)(F)F)c3)cc1)=NN(C)C(=O)C2 [IIIaw, 1-{4-[3,5-bis-(trifluoromethyl)phenyl]phenyl}-7,8-dimethoxy-3-methyl-3,5-dihydro-4H-2,3-benzodiazepin-4-one] | 16
3 | COc1cc2c(cc1OC)C(c1ccc(-c3ccc(C)cc3)cc1)=NN(C)C(=O)C2 [IIIas, 7,8-dimethoxy-3-methyl-1-[4-(4-methylphenyl)phenyl]-3,5-dihydro-4H-2,3-benzodiazepin-4-one] | 2.9

same assay, conditions: Table 1, formula (III); compound at 10 μM

Row | SMILES | PDE4 percentage inhibition at 10 μM [%]
4 | CCN1N=C(c2ccccc2)c2cc(OC)c(OC)cc2CC1=O [IIIag, 3-ethyl-7,8-dimethoxy-1-phenyl-3,5-dihydro-4H-2,3-benzodiazepin-4-one] | 36
5 | COC(=O)CCCCCCCCCCCN1N=C(c2ccccc2)c2cc(OC)c(OC)cc2CC1=O [IIIae, 7,8-dimethoxy-3-(12-methoxy-12-oxododecyl)-1-phenyl-3,5-dihydro-4H-2,3-benzodiazepin-4-one] | 19
6 | CCCCCCCCCCCCN1N=C(c2ccccc2)c2cc(OC)c(OC)cc2CC1=O [IIIad, 3-n-dodecyl-7,8-dimethoxy-1-phenyl-3,5-dihydro-4H-2,3-benzodiazepin-4-one] | 3.9

same assay, conditions: Table 2, formula (XXII); 1 μM cyclic AMP

Row | SMILES | IC50 [µM]
7 | CCOc1cc2c(cc1OC)C(c1ccccc1)=NC(Cc1ccccc1)C(=O)N2 (stereo not drawn) [XXIIbb, 3-benzyl-8-ethoxy-7-methoxy-5-phenyl-1,3-dihydro-2H-1,4-benzodiazepin-2-one] | 15

same assay, conditions: Table 2, formula (XXII); compound at 10 μM

Row | SMILES | PDE4 percentage inhibition at 10 μM [%]
8 | COc1cc2c(cc1OC)C(c1ccccc1)=N[C@@H](CCCCN)C(=O)N2 [XXIIaw, (S)-3-(4-aminobutyl)-7,8-dimethoxy-5-phenyl-1,3-dihydro-2H-1,4-benzodiazepin-2-one] | 4
9 | O=C1CN=C(c2cccc(C(F)(F)F)c2)c2cc(I)ccc2N1 [XXIIac, 7-iodo-5-[3-(trifluoromethyl)phenyl]-1,3-dihydro-2H-1,4-benzodiazepin-2-one] | 35
10 | COc1cc2c(cc1OC)C(c1ccccc1)=NC(Cc1c[nH]c3ccccc13)C(=O)N2 (stereo not drawn) [XXIIas, 7,8-dimethoxy-3-(1H-indol-3-ylmethyl)-5-phenyl-1,3-dihydro-2H-1,4-benzodiazepin-2-one] | 41.3
11 | COc1cc2c(cc1OC)C(c1ccccc1)=N[C@@H](CCCCNC(C)=O)C(=O)N2 [XXIIax, (S)-N-[4-(7,8-dimethoxy-2-oxo-5-phenyl-2,3-dihydro-1H-1,4-benzodiazepin-3-yl)butyl]acetamide] | 6
12 | O=C1CN=C(c2ccccc2)c2cc3c(cc2N1)OCCO3 [XXIIah, 10-phenyl-2,3,6,8-tetrahydro-7H-[1,4]dioxino[2,3-h][1,4]benzodiazepin-7-one] | 21.2
13 | CCCCN(Cc1ccccc1)C(=O)OC1N=C(c2ccccc2)c2cc(OC)c(OC)cc2NC1=O [XXIIav, (7,8-dimethoxy-5-phenyl-2-oxo-2,3-dihydro-1H-1,4-benzodiazepin-3-yl)benzyl(S)-butylcarbamate] | 23
14 | COc1ccc2c(c1)C(c1cccc(C(F)(F)F)c1)=NCC(=O)N2 [XXIIae, 7-methoxy-5-[3-(trifluoromethyl)phenyl]-1,3-dihydro-2H-1,4-benzodiazepin-2-one] | 21

same assay, conditions: Table 3, formula (II); 1 μM cyclic AMP

Row | SMILES | IC50
15 | CCN1C(=O)C(Cc2ccccc2C)N=C(c2ccccc2)c2cc(OC)c(OC)cc21 (stereo not drawn) [IIcz, 1-ethyl-7,8-dimethoxy-3-(2-methylbenzyl)-5-phenyl-1,3-dihydro-2H-1,4-benzodiazepin-2-one] | 4.4 µM
16 | COc1cc2c(cc1OC)N(C)C(=O)CN=C2c1cc2ccccc2[nH]1 [IIaq, 5-(2-indolyl)-7,8-dimethoxy-1-methyl-1,3-dihydro-1,4-benzodiazepin-2-one] | 7.9 µM
17 | COc1cc2c(cc1OC)N(C)C(=O)CN=C2c1ccc2cc(OCc3ccccc3)ccc2c1 [IIao, 5-(6-benzyloxy-2-naphthyl)-7,8-dimethoxy-1-methyl-1,3-dihydro-1,4-benzodiazepin-2-one] | 1.6 µM
18 | COc1cc2c(cc1OC)N(C)C(=O)CN=C2c1ccc(Br)cc1 [IIba, 5-(4-bromophenyl)-7,8-dimethoxy-1-methyl-1,3-dihydro-2H-1,4-benzodiazepin-2-one] | 17 µM
19 | CCN1C(=O)C(Cc2cc(Cl)ccc2Cl)N=C(c2ccccc2)c2cc(OC)c(OC)cc21 (stereo not drawn) [IIdi, 3-(2,5-dichlorobenzyl)-7,8-dimethoxy-1-ethyl-5-phenyl-1,3-dihydro-2H-1,4-benzodiazepin-2-one] | 8.15 µM
20 | CCN1C(=O)C(Cc2ccccc2C#N)N=C(c2ccccc2)c2cc(OC)c(OC)cc21 (stereo not drawn) [IIce, 3-(2-cyanobenzyl)-7,8-dimethoxy-1-ethyl-5-phenyl-1,3-dihydro-2H-1,4-benzodiazepin-2-one] | 0.88 µM and 1.4 µM
21 | CCOc1cc2c(cc1OC)C(c1ccccc1)=NC(Cc1cccc(C#N)c1)C(=O)N2C (stereo not drawn) [IIdf, 3-[(8-ethoxy-7-methoxy-1-methyl-2-oxo-5-phenyl-2,3-dihydro-1H-1,4-benzodiazepin-3-yl)methyl]benzonitrile] | 1.5 µM
22 | CCN1C(=O)C(Cc2cccc(Br)c2)N=C(c2ccccc2)c2cc(OC)c(OC)cc21 (stereo not drawn) [IIcj, 3-(3-bromobenzyl)-1-ethyl-7,8-dimethoxy-5-phenyl-1,3-dihydro-2H-1,4-benzodiazepin-2-one] | 3.76 µM
23 | CCN1C(=O)C(Cc2ccccc2N)N=C(c2ccccc2)c2cc(OC)c(OC)cc21 (stereo not drawn) [IIca, 7,8-dimethoxy-1-ethyl-3-(2-aminobenzyl)-5-phenyl-1,3-dihydro-2H-1,4-benzodiazepin-2-one] | 2.5 µM

same assay, conditions: Table 3, formula (II); compound at 10 μM

Row | SMILES | PDE4 percentage inhibition at 10 μM [%]
24 | CCN1C(=O)CN=C(c2ccccc2)c2cc(OC)c(OC)cc21 [IIbd, 1-ethyl-7,8-dimethoxy-5-phenyl-1,3-dihydro-2H-1,4-benzodiazepin-2-one] | 34.3
25 | COc1ccc2c(c1)N(C)C(=O)CN=C2c1ccccc1 [IIdm, 8-methoxy-1-methyl-5-phenyl-1,3-dihydro-2H-1,4-benzodiazepin-2-one] | 16
26 | COc1cc2c(cc1OC)N(C)C(=O)CN=C2c1ccccc1OC [IIam, 7,8-dimethoxy-5-(2-methoxyphenyl)-1-methyl-1,3-dihydro-1,4-benzodiazepin-2-one] | 20
27 | CCN1C(=O)C(CC#N)N=C(c2ccccc2)c2cc(OC)c(OC)cc21 (stereo not drawn) [IIcb, (1-ethyl-7,8-dimethoxy-2-oxo-5-phenyl-2,3-dihydro-1H-1,4-benzodiazepin-3-yl)acetonitrile] | 28.5
28 | CCCN1C(=O)CN=C(c2ccccc2)c2cc(OC)c(OC)cc21 [IIbe, 7,8-dimethoxy-5-phenyl-1-propyl-1,3-dihydro-2H-1,4-benzodiazepin-2-one] | 34.7
29 | COc1cc2c(cc1OC)N(C)C(=O)CN=C2N1CCCCC1 [IIar, 7,8-dimethoxy-1-methyl-5-(piperidin-1-yl)-1,3-dihydro-1,4-benzodiazepin-2-one] | 0
30 | COc1cc2c(cc1OC)N(C)C(=O)CN=C2c1ccc(N(C)C)cc1 [IIaj, 7,8-dimethoxy-5-(4-N,N-dimethylaminophenyl)-1-methyl-1,3-dihydro-2H-1,4-benzodiazepin-2-one] | 7.9
